Source: PubChem BioAssay (NCI)
“And” between values parts separate entries of the source, which are not always exact repeats. Equal entries are not always repeated.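 1) Cells in 96-well plates. 2) Compound, 48 h, 5 concentrations. 3) Linear interpolation between surrounding doses. 4) Unreached endpoint = highest concentration. GI50 = concentration required for 50% inhibition of growth. TGI: concentration producing complete growth inhibition.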

What was measured:
Assay in all cases: growth of human tumour cells (NCI), 48 h
[1] = test system: 786-0 renal
[2] = test system: HOP-92 NSCLC
[3] = test system: K-562 leukemia
[4] = test system: SK-MEL-5 melanoma
[5] = test system: SNB-19 CNS
[6] = test system: UACC-257 melanoma
[7] = test system: UACC-62 melanoma
[8] = test system: HL-60(TB) leukemia

Structure (SMILES)	GI50 [1]	TGI [1]	GI50 [2]	TGI [2]	GI50 [3]	TGI [3]	GI50 [4]	TGI [4]	GI50 [5]	TGI [5]	GI50 [6]	TGI [6]	GI50 [7]	TGI [7]	GI50 [8]	TGI [8]
COC(=O)[C@]12CC[C@@H](C)[C@H](C)[C@@H]1C1=CC[C@@H]3[C@@]4(C)C(C=O)=C[C@@](C)(CO)[C@@H]4[C@H](O)C[C@@]3(C)[C@]1(C)CC2	2.97 µM	11.1 µM	6.18 µM	20.9 µM	3.86 µM	15.5 µM	5.8 µM	18.4 µM	7.69 µM	21.7 µM	3.11 µM	13.1 µM	3.71 µM	14.8 µM	–	–
O=S(=O)(NC1=NCCN1C(=S)SN1CCn2c1nsc2=S)c1ccc(Oc2ccccc2)cc1	63.8 µM	> 100 µM	74.2 µM	> 100 µM	–	–	32.3 µM	> 100 µM	> 100 µM	> 100 µM	> 100 µM	> 100 µM	39.3 µM	> 100 µM	2.78 µM	11.3 µM
O=S1(=O)c2ccccc2N(c2ccccc2)c2nnnn21	–	32.7 µM	–	88.7 µM	–	> 100 µM	–	> 100 µM	–	88.5 µM	–	> 100 µM	–	37.1 µM	–	33.6 µM
Cc1ccc(N(C=O)c2c([N+](=O)[O-])cc([N+](=O)[O-])c3c2=[N+]([O-])CN=3)cc1	–	67.6 µM	–	60.1 µM	–	82.7 µM	–	30.1 µM	–	> 100 µM	–	58 µM	–	29.8 µM	–	61.3 µM
COc1ccc(Oc2nc3cc(N)cc(N)c3nc2-c2ccccc2)cc1	24.4 µM	> 100 µM	–	–	26.1 µM	> 100 µM	44.6 µM	> 100 µM	65 µM	> 100 µM	> 100 µM	> 100 µM	63.5 µM	> 100 µM	15.4 µM	> 100 µM
O=C(Oc1ccccc1)N(c1ccccc1)c1ccccc1	26.2 µM	83.4 µM	19 µM	66.9 µM	25.8 µM	> 100 µM	15 µM	29.9 µM	40.7 µM	> 100 µM	26.4 µM	83 µM	22.3 µM	> 100 µM	28.2 µM	71.4 µM
CCCCC(=O)N(c1ccc(Nc2c3ccccc3nc3cc([N+](=O)[O-])ccc23)cc1)S(C)(=O)=O	4.3 µM	> 100 µM	3.57 µM	21.5 µM	5.16 µM	> 47.4 µM	4.25 µM	18.3 µM	7.39 µM	> 100 µM	14.6 µM	62.5 µM	7.12 µM	26.1 µM	12.9 µM	> 69.7 µM
COc1cc(OCc2ccccc2)c2c(CCC(=O)O)cc(=O)oc2c1 (tested in a mixture with another compound)	–	> 100 µM	–	> 100 µM	–	> 100 µM	–	> 100 µM	–	> 100 µM	–	> 100 µM	–	> 100 µM	–	93.7 µM
O=C1C=C(NCCO)c2nccc3c2c1nc1ccccc13	31.5 µM	> 100 µM	> 100 µM	> 100 µM	31.5 µM	> 100 µM	16.3 µM	35 µM	34 µM	> 100 µM	32.2 µM	> 100 µM	13.4 µM	31 µM	14.2 µM	> 100 µM
C[C@]12CC[C@H](O[C@@H]3O[C@H](CO[C@@H]4O[C@H](CO)[C@@H](O)[C@H](O)[C@H]4O)[C@@H](O)[C@H](O)[C@H]3O)C[C@@H]1CC[C@@H]1[C@@H]2CC[C@]2(C)[C@@H](C3=CC(=O)OC3)CC[C@]12O	–	> 100 µM	–	> 89.1 µM	–	> 100 µM	–	8.52 µM	–	> 100 µM	–	> 73.3 µM	–	> 80.4 µM	–	54.9 µM
c1ccc(-c2[nH]ncc2-c2ccnc(-c3ccc(OCCN4CCOCC4)cc3)c2)nc1	> 25 µM	> 25 µM	> 25 µM	> 25 µM	13.2 µM	> 25 µM	> 25 µM	> 25 µM	> 25 µM	> 25 µM	> 25 µM	> 25 µM	> 25 µM	> 25 µM	> 25 µM	> 25 µM
Cc1cc(O)ccc1C1=NN(c2ccc(S(N)(=O)=O)cc2)C(=O)CC1	18.9 µM and 43.6 µM	50 µM and > 100 µM	11.1 µM and 18.5 µM	50 µM and 75.5 µM	3 µM and 2.68 µM	50 µM and > 100 µM	2.1 µM and 6.78 µM	50 µM and > 100 µM	27.4 µM and 20.3 µM	50 µM and > 100 µM	31.3 µM and > 100 µM	50 µM and > 100 µM	2.74 µM and 3.68 µM	50 µM and > 100 µM	1.85 µM and 5 µM	50 µM and > 100 µM
Cc1ccc(N)cc1[As]=[As]c1cc(N)ccc1C (stereo unspecified)	1.64 µM	3.03 µM	0.997 µM	2.4 µM	0.341 µM	> 100 µM	1.51 µM	2.91 µM	1.68 µM	3.24 µM	1.25 µM	2.54 µM	1.51 µM	3 µM	2.01 µM	5.8 µM
CC(=Nc1ccc(N(C)C)cc1)c1ccccc1	–	36.2 µM	–	–	–	74.7 µM	–	29.7 µM	–	> 100 µM	–	–	–	33.6 µM	–	43.9 µM
CN(C)c1ccc(/C=C(\C#N)c2cc3ccccc3[nH]2)cc1	2.52 µM	> 100 µM	1.42 µM	5.53 µM	–	–	1.36 µM	32.8 µM	2.23 µM	> 100 µM	4.86 µM	> 100 µM	0.679 µM	> 100 µM	0.455 µM	> 100 µM
CCN1CCN(c2nc(C)cc(NCc3cc(Nc4ccnc5cc(Cl)ccc45)ccc3F)n2)CC1	1.54 µM	3.13 µM	1.21 µM	4.07 µM	0.663 µM	4.95 µM	1.7 µM	3.12 µM	2.91 µM	13.1 µM	1.89 µM	3.79 µM	–	–	2.22 µM	4.55 µM
COC(=O)[C@H](Cc1cn(C)cn1)NC(=O)[C@H](CC(=O)OCc1ccccc1)NC(=O)Nc1cc(C(F)(F)F)cc(C(F)(F)F)c1	10.9 µM	24.2 µM	–	–	4.15 µM	15.7 µM	12.2 µM	24.6 µM	13.8 µM	28.5 µM	6.34 µM	19.1 µM	–	–	12.3 µM	27.1 µM
